Data reported in patent publication US20170217946A1, “AMINO-SUBSTITUTED ISOXAZOLES” (Bayer Pharma Aktiengesellschaft, priority 2014, published 2017).

Assays:
[1] = target: T1, human Bub1 (Homo sapiens, UniProt O43683); test: Bub1 kinase assay (TR-FRET); type: biochemical; details: 10 μM ATP
T1 construct: catalytic domain of human Bub1 (amino acids 704-1085); His6 (N); made in house; host or cells: insect cells (Hi5)
Text: Bub1-inhibitory activity of compounds of the present invention was quantified employing the Bub1 TR-FRET assay as described in the following paragraphs.
N-terminally His6-tagged recombinant catalytic domain of human Bub1 (amino acids 704-1085), expressed in insect cells (Hi5) and purified by Ni-NTA affinity chromatography and subsequent size exclusion chromatography, was used as enzyme. As substrate for the kinase reaction the biotinylated peptide biotin-Ahx-VLLPKKSFAEPG (C-terminus in amid form) was used which can be purchased e.g. form the company Biosyntan (Berlin, Germany).
For the assay 50 nl of a 100 fold concentrated solution of the test compound in DMSO was pipetted into a black low volume 384 well microtiter plate (Greiner Bio-One, Frickenhausen, Germany), 2 μl of a solution of Bub1 in aqueous assay buffer [50 mM Tris/HCl pH 7.5, 10 mM magnesium chloride (MgCl2), 200 mM potassium chloride (KCl), 1.0 mM dithiothreitol (DTT), 0.1 mM sodium ortho-vanadate, 1% (v/v) glycerol, 0.01% (w/v) bovine serum albumine (BSA), 0.005% (v/v) Trition X-100 (Sigma), 1× Complete EDTA-free protease inhibitor mixture (Roche)] were added and the mixture was incubated for 15 min at 22° C. to allow pre-binding of the test compounds to the enzyme before the start of the kinase reaction. Then the kinase reaction was started by the addition of 3 μl of a solution of adenosine-tri-phosphate (ATP, 16.7 μM=>final conc. in the 5 μl assay volume is 10 μM) and substrate (1.67 μM=>final conc. in the 5 μl assay volume is 1 μM) in assay buffer and the resulting mixture was incubated for a reaction time of 60 min at 22° C. The concentration of Bub1 was adjusted depending of the activity of the enzyme lot and was chosen appropriate to have the assay in the linear range, typical concentrations were in the range of 200 ng/ml. The reaction was stopped by the addition of 5 μl of a solution of TR-FRET detection reagents (0.2 μM streptavidine-XL665 [Cisbio Bioassays, Codolet, France] and 1 nM anti-phosho-Serine antibody [Merck Millipore, cat. #35-001] and 0.4 nM LANCE EU-W1024 labeled anti-mouse IgG antibody [Perkin-Elmer, product no. AD0077, as an alternative a Terbium-cryptate-labeled anti-mouse IgG antibody from Cisbio Bioassays can be used]) in an aqueous EDTA-solution (50 mM EDTA, 0.2% (w/v) bovine serum albumin in 100 mM HEPES pH 7.5).
The resulting mixture was incubated 1 h at 22° C. to allow the formation of complex between the phosphorylated biotinylated peptide and the detection reagents. Subsequently the amount of phosphorylated substrate was evaluated by measurement of the resonance energy transfer from the Eu-chelate to the streptavidine-XL. Therefore, the fluorescence emissions at 620 nm and 665 nm after excitation at 350 nm was measured in a TR-FRET reader, e.g. a Rubystar or Pherastar (both from BMG Labtechnologies, Offenburg, Germany) or a Viewlux (Perkin-Elmer). The ratio of the emissions at 665 nm and at […] was taken as the measure for the amount of phosphorylated substrate. The data were normalised (enzyme reaction without inhibitor=0% inhibition, all other assay components but no enzyme=100% inhibition).

[2] = test system: HeLa cells; test: Proliferation assay (crystal violet); type: cell-based; details: Homo sapiens, 96 h, 4 days incubation, read-out: Inhibition of proliferation HeLa IC50
Procedure: Cultivated tumor cells (cells were ordered from ATCC, except HeLa-MaTu and HeLa-MaTu-ADR, which were ordered from EPO-GmbH, Berlin) were plated at a density of 1000 to 5000 cells/well, depending on the growth rate of the respective cell line, in a 96-well multititer plate in 200 μL of their respective growth medium supplemented 10% fetal calf serum. After 24 hours, the cells of one plate (zero-point plate) were stained with crystal violet (see below), while the medium of the other plates was replaced by fresh culture medium (200 μl), to which the test substances were added in various concentrations (0 μM, as well as in the range of 0.001-10 μM; the final concentration of the solvent dimethyl sulfoxide was 0.5%). The cells were incubated for 4 days in the presence of test substances. Cell proliferation was determined by staining the cells with crystal violet: the cells were fixed by adding 20 μl/measuring point of an 11% glutaric aldehyde solution for 15 minutes at room temperature. After three washing cycles of the fixed cells with water, the plates were dried at room temperature. The cells were stained by adding 100 μl/measuring point of a 0.1% crystal violet solution (pH 3.0). After three washing cycles of the stained cells with water, the plates were dried at room temperature. The dye was dissolved by adding 100 μl/measuring point of a 10% acetic acid solution. Absorption was determined by photometry at a wavelength of 595 nm. The change of cell number, in percent, was calculated by normalization of the measured values to the absorption values of the zero-point plate (=0%) and the absorption of the untreated (0 μm) cells (=100%). The IC50 values were determined by means of a 4 parameter fit.

T1 sequence (O43683 704-1085): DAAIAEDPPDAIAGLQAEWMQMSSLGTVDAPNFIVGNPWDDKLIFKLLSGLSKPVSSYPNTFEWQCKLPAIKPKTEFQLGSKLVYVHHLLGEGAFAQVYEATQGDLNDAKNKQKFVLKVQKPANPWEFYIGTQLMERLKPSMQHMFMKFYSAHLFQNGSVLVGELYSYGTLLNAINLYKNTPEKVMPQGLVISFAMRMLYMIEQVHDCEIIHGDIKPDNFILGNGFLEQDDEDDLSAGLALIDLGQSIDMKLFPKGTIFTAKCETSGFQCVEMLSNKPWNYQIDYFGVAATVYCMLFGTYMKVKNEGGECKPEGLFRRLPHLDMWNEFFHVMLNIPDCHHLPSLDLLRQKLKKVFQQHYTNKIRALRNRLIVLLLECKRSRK

Row | Structure (SMILES) | IC50 [1] [µM] | IC50 [2] [µM]
1 | Cc1noc(Nc2cnc(C(F)(F)F)cn2)c1C(=O)Nc1ccc(OC[C@@H]2CCN(CC(F)F)C2)nc1 [Example 3a, N-(6-{[(3R)-1-(2,2-difluoroethyl)pyrrolidin-3-yl]methoxy}pyridin-3-yl)-3-methyl-5-{[5-(trifluoromethyl)pyrazin-2-yl]amino}-1,2-oxazole-4-carboxamide] | > 20 | 3.4
2 | Cc1noc(Nc2cnc(C(F)(F)F)cn2)c1C(=O)Nc1ccc(OC[C@@H]2CCN(CC(F)(F)F)C2)nc1 [Example 4a, 3-Methyl-N-(6-{[(3R)-1-(2,2,2-trifluoroethyl)pyrrolidin-3-yl]methoxy}pyridin-3-yl)-5-{[5-(trifluoromethyl)pyrazin-2-yl]amino}-1,2-oxazole-4-carboxamide] | > 20 | 2.8
3 | Cc1noc(Nc2cnc(C(F)(F)F)cn2)c1C(=O)Nc1ccc(OC[C@H]2CCN(CC(F)F)C2)nc1 [Example 7a, N-(6-{[(3S)-1-(2,2-difluoroethyl)pyrrolidin-3-yl]methoxy}pyridin-3-yl)-3-methyl-5-{[5-(trifluoromethyl)pyrazin-2-yl]amino}-1,2-oxazole-4-carboxamide] | > 20 | 4
4 | Cc1noc(Nc2cnc(C(F)(F)F)cn2)c1C(=O)Nc1ccc(OC[C@H]2CCN(CC(F)(F)F)C2)nc1 [Example 8a, 3-Methyl-N-(6-{[(3S)-1-(2,2,2-trifluoroethyl)pyrrolidin-3-yl]methoxy}pyridin-3-yl)-5-{[5-(trifluoromethyl)pyrazin-2-yl]amino}-1,2-oxazole-4-carboxamide] | > 20 | 1.9

Other lines, results leading:

Row | IC50 [1] [µM] | IC50 [2] [µM] | Structure (SMILES)
5 | > 20 | 3.1 | Cc1noc(Nc2cnc(C(F)(F)F)cn2)c1C(=O)Nc1ccc(OC[C@H]2CCN(CCC(F)(F)F)C2)nc1 [Example 9a, 3-Methyl-5-{[5-(trifluoromethyl)pyrazin-2-yl]amino}-N-(6-{[(3S)-1-(3,3,3-trifluoro-propyl)pyrrolidin-3-yl]methoxy}pyridin-3-yl)-1,2-oxazole-4-carboxamide]
6 | > 20 | 2.7 | COc1ccc(NC(=O)c2c(C)noc2Nc2cnc(C(F)(F)F)cn2)cn1 [Example 2c, N-(6-methoxypyridin-3-yl)-3-methyl-5-{[5-(trifluoromethyl)pyrazin-2-yl]amino}-1,2-oxazole-4-carboxamide]
7 | > 20 | 3.3 | Cc1noc(Nc2cnc(C(F)(F)F)cn2)c1C(=O)Nc1ccc(OC[C@@H]2CCN(CCC(F)(F)F)C2)nc1 [Example 5a, 3-Methyl-5-{[5-(trifluoromethyl)pyrazin-2-yl]amino}-N-(6-{[(3R)-1-(3,3,3-trifluoro-propyl)pyrrolidin-3-yl]methoxy}pyridin-3-yl)-1,2-oxazole-4-carboxamide]
